Ki data for nine molecules are collected here from ChEMBL document CHEMBL1135772, “Conformationally constrained nicotines: polycyclic, bridged, and spiro-annulated analogues as novel ligands for the nicotinic acetylcholine receptor” (J Med Chem, 2002).

As a reminder, the Ki is the dissociation constant of the complex between target and ligand, obtained from inhibition or displacement. Low values mean higher affinity, high ones lower affinity.

For this assay, the target named is Neuronal acetylcholine receptor; alpha4/beta2 (Rattus norvegicus, UniProt P09483+P12390). Description: Displacement of [3H]cytisine from Nicotinic acetylcholine receptor alpha4-beta2 in rat forebrain. On the technique in general: Displacement assays read how much labelled ligand stays bound in the presence of the test substance.
Chain of Neuronal acetylcholine receptor; alpha4/beta2 (P09483 whole entry): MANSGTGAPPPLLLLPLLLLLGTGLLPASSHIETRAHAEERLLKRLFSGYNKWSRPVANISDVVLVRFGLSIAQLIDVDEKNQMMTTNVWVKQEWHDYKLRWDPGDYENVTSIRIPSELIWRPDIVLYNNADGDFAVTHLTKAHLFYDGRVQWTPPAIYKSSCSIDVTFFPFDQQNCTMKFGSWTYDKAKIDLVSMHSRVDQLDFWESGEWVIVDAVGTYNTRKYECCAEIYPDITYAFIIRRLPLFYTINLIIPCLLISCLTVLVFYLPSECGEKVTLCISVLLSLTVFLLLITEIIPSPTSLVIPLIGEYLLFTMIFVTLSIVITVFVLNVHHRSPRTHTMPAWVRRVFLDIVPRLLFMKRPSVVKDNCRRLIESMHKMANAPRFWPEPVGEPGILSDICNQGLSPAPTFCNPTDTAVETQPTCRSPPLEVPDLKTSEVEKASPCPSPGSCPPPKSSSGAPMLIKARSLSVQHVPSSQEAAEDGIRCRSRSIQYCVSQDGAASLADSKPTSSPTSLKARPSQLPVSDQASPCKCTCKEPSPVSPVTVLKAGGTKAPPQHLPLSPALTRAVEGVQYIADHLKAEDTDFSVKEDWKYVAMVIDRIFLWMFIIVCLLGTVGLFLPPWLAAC
Chain of Neuronal acetylcholine receptor; alpha4/beta2 (P12390 whole entry): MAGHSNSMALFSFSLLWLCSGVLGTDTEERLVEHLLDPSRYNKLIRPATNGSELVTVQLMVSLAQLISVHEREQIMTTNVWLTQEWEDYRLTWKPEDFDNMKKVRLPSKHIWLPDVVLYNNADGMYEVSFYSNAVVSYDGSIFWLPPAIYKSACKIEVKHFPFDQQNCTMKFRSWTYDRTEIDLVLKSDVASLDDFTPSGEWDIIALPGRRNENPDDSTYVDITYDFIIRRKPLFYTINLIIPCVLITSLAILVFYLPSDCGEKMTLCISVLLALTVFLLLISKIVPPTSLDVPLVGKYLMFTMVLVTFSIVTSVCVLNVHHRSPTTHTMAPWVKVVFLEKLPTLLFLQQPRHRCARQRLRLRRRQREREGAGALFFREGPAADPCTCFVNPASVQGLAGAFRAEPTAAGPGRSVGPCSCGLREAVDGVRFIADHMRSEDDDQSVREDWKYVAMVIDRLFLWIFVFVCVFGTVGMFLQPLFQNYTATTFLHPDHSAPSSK

As to `c1cc2c(cn1)[C@]1(CCCN1)CC2`, the Ki was found to be 533 nM. Under `CN1CCC[C@@]12CCc1ccncc12` stands 148 nM; under `CN1CCC[C@]12CCc1ccncc12`, 4.79 nM; under `c1cc2c(cn1)[C@@]1(CCCN1)CC2`, 53.1 nM.

`c1cc2c(cn1)[C@H]1N3CCC1(CC3)C2` showed a Ki of 962 nM. This Ki lies about 18-fold higher than the previous one. Under `c1cncc(C2C3CCN2CC3)c1` (single isomer, unassigned; (-)) stands 1.89 nM. As for `c1cncc(C2C3CCN2CC3)c1` (stereo in doubt; 3 (+)), the figure is 2.32 nM; as for `c1cc2c(cn1)C1N3CCCC1(CC3)C2` (stereo in doubt; (+)4b), 318 nM.

`c1cc2c(cn1)C1N3CCCC1(CC3)C2` (stereo in doubt; (-)4b) gave a Ki of 1040 nM. Against the preceding molecule, the Ki is about 3.3-fold higher.
